Assay [1] has as its system HCV replicon genotype 1a. The assay can be described thus: HCV replicon assay, genotype 1a (cell ELISA for NS3/4A). The class given is cell-based. The settings on record: Hepatitis C virus, 96 h, read-out: 1a IC50 (nM). As to the method:
(§1) Measurement of inhibition by compounds was performed using the HCV replicon system. Several different replicons encoding different HCV genotypes or mutations were used. In addition, potency measurements were made using different formats of the replicon assay, including different ways of measurements and different plating formats. See Jan M. Vrolijk et al., A replicons-based bioassay for the measurement of interferons in patients with chronic hepatitis C, 110 J. V[…] 201 (2003); Steven S. Carroll et al., Inhibition of Hepatitis C Virus RNA Replication by 2′-Modified Nucleoside Analogs, 278(14) J. BIOLOGICAL CHEMISTRY 11979 (2003). However, the underlying principles are common to all of these determinations, and are outlined below.
(§2) Stable neomycin phosphotransferase encoding replicons-harboring cell lines were used, so all cell lines were maintained under G418 selection prior to the assay. Potency was determined using a cell ELISA assay with an antibody to the replicons encoded NS3/4a protease. See Caterina Trozzi et al., In Vitro Selection and Characterization of Hepatitis C Virus Serine Protease Variants Resistant to an Active-Site Peptide Inhibitor, 77(6) J. Virol. 3669 (2003). To initiate an assay, replicon cells were plated in the presence of a dilution series of test compound in the absence of G418. Typically, the assays were performed in a 96-well plate formate for manual operation, or a 384-well plate format for automated assay. Replicon cells and compound were incubated for 96 hours. At the end of the assay, cells were washed free of media and compound, and the cells were then lysed. RNA was quantified indirectly through detection of replicon-encoded NS3/4A protein levels, through an ELISA-based assay with an antibody specific for NS3/4A. IC50 determinations were calculated as a percentage of a DMSO control by fitting the data to a four-parameter fit function and the data obtained is provided in the table below.
(§3) Data for selected compounds of the present invention was obtained for genotypes 1a and 1b using this method and is provided in the table below: […]
(In general: In antiviral work, replicon cells carry a viral genome segment that copies itself.)

Assay [2] relates to HCV replicon genotype 1b. The assay can be described thus: HCV replicon assay, genotype 1b (cell ELISA for NS3/4A). In kind it is cell-based. The settings on record: Hepatitis C virus, 96 h, read-out: 1b IC50 (nM). As to the method: as §1, §2, §3

Results on 27 compounds are retold here after US9549917B2, “Heterocyclic-substituted benzofuran derivatives and methods of use thereof for the treatment of viral diseases” (priority 2011, dated 2017).

Structures are written as SMILES.

For orientation: IC50 means the concentration that gives 50% inhibition.

With `CNC(=O)c1c(-c2ccc(F)cc2)oc2cc(N(C)S(C)(=O)=O)c(-c3cnnc(-c4cc5c(C#N)cccc5n4C)c3)cc12` [Compound 273], the concentration for half-maximal inhibition (IC50) in assay [1] was found to be 0.3 nM; in assay [2], 0.2 nM.
With `CNC(=O)c1c(-c2ccc(F)cc2)oc2cc(N(C)S(C)(=O)=O)c(-c3cnnc(-c4nc5ccccc5s4)c3)cc12` [Compound 287], the figures for the IC50 in assay [1] and in assay [2] were 3.2 nM and 5.1 nM, respectively.
The like results for `CNC(=O)c1c(-c2ccc(F)cc2)oc2cc(N(C)S(C)(=O)=O)c(-c3cncc(-c4cc5ccccc5[nH]4)n3)cc12` [Compound 113] were, in that order, 0.3 nM and 0.8 nM.
Turning to `CNC(=O)c1c(-c2ccc(F)cc2)oc2cc(N3CCCC3=O)c(-c3cncc(-c4nc5c(s4)CCCC5(F)F)c3)cc12` [Compound 155, 5-(5-(4,4-difluoro-4,5,6,7-tetrahydrobenzo[d]thiazol-2-yl)pyridin-3-yl)-2-(4-fluorophenyl)-N-methyl-6-(2-oxopyrrolidin-1-yl)benzofuran-3-carboxamide], the IC50 was determined as 2.9 nM in assay [1] and 1 nM in assay [2].
In the case of `CNC(=O)c1c(-c2ccc(F)cc2)oc2cc(N(C)S(C)(=O)=O)c(-c3cc(N4Cc5cccc(F)c5C4)ncc3Cl)cc12` [Compound 291], the results for the IC50 in assay [1] and in assay [2] were 4.8 nM and 8 nM, respectively.
Taken in the same sequence, the figures for `CNC(=O)c1c(-c2ccc(F)cc2)oc2cc(N(C)S(C)(=O)=O)c(-c3cncc(-c4ccc5cc(C(F)(F)F)cnc5n4)c3)cc12` [Compound 180] were 5.4 nM and 2.3 nM.
Taken in the same sequence, the figures for `CNC(=O)c1c(-c2ccc(F)cc2)oc2cc(N(C)S(C)(=O)=O)c(-c3cc(-c4cc5ccccc5[nH]4)nc(C#N)n3)cc12` [Compound 151] were 7.7 nM and 3.7 nM.
On to `CNC(=O)c1c(-c2ccc(F)cc2)oc2cc(N(C)S(C)(=O)=O)c(-c3cnnc(N4Cc5c(F)cccc5C4=O)c3)cc12` [Compound 281], for which the IC50 was determined as 22.3 nM in assay [1] and 4.8 nM in assay [2].
The like results for `CNC(=O)c1c(-c2ccc(F)cc2)oc2cc(N(C)S(C)(=O)=O)c(-c3ccc(OC)c(-c4cc5ncccc5[nH]4)n3)cc12` [Compound 211] were, in that order, 8.8 nM and 2.5 nM.
Taken in the same sequence, the figures for `CNC(=O)c1c(-c2ccc(F)cc2)oc2cc(N(C)S(C)(=O)=O)c(-c3cc(-c4cc5c(F)cccc5[nH]4)cnn3)cc12` [Compound 263] were 3.2 nM and 2.4 nM.
Taken in the same sequence, the figures for `CNC(=O)c1c(-c2ccc(F)cc2)oc2cc(N(C)S(C)(=O)=O)c(-c3ccc(O)c(C4Cc5c(F)cccc5N4)n3)cc12` (stereo not drawn) [Compound 257, 5-(6-(4-fluoroindolin-2-yl)-5-hydroxypyridin-2-yl)-2-(4-fluorophenyl)-N-methyl-6-(N-methylmethylsulfonamido)benzofuran-3-carboxamide] were 13 nM and 10 nM.
For `CNC(=O)c1c(-c2ccc(F)cc2)oc2cc(N(C)S(C)(=O)=O)c(-c3ncc(OC)c(-c4cc5c(C#N)cccc5[nH]4)n3)cc12` [Compound 214], the IC50 came to 33 nM in assay [1] and 9.9 nM in assay [2].
For the compound `CNC(=O)c1c(-c2ccc(F)cc2)oc2cc(N(C)S(C)(=O)=O)c(-c3ccc(O)c(-c4cc5ccccn5n4)n3)cc12` [Compound 255], the IC50 came out at 1450 nM in assay [1] and 104 nM in assay [2].
Taken in the same sequence, the figures for `CNC(=O)c1c(-c2ccc(F)cc2)oc2cc(N(C)S(C)(=O)=O)c(-c3cc(-c4cc5c(C#N)cccc5[nH]4)nnc3C)cc12` [Compound 266] were 3.2 nM and 3 nM.
Taken in the same sequence, the figures for `CNC(=O)c1c(-c2ccc(F)cc2)oc2cc(N(C)S(C)(=O)=O)c(-c3cnc(OC)c(-c4nc5c(o4)CCCC5(F)F)c3)cc12` [Compound 94] were 0.8 nM and 1.9 nM.
`CNC(=O)c1c(-c2ccc(F)cc2)oc2cc(N(C)S(C)(=O)=O)c(-c3cncc(-c4nc5ccccc5s4)c3)cc12` [Compound 62]: the IC50 in assay [1] is 2 nM; in assay [2] it was 1.2 nM.
With `CNC(=O)c1c(-c2ccc(F)cc2)oc2cc(N(C)S(C)(=O)=O)c(-c3nnc(-c4cc5c(F)cccc5[nH]4)o3)cc12` [Compound 256, 5-(5-(4-fluoro-1H-indol-2-yl)-1,3,4-oxadiazol-2-yl)-2-(4-fluorophenyl)-N-methyl-6-(N-methylmethylsulfonamido)benzofuran-3-carboxamide], the IC50 in assay [1] worked out at 0.4 nM; in assay [2], 0.7 nM.
Consider `CNC(=O)c1c(-c2ccc(F)cc2)oc2cc(N(C)S(C)(=O)=O)c(-c3cc(-c4cc5ccccc5[nH]4)c(OC)nn3)cc12` [Compound 209], for which the IC50 in assay [1] was found to be 8.9 nM; in assay [2], 4.7 nM.
Take `CNC(=O)c1c(-c2ccc(F)cc2)oc2cc(N(C)S(C)(=O)=O)c(-c3cnc(OC)c(-c4nc5c(F)cccc5o4)c3)cc12` [Compound 1, 5-(5-(4-fluorobenzo[d]oxazol-2-yl)-6-methoxypyridin-3-yl)-2-(4-fluorophenyl)-N-methyl-6-(N-methylmethylsulfonamido)benzofuran-3-carboxamide]: the figures for the IC50 in assay [1] and in assay [2] were 0.9 nM and 0.6 nM, respectively.
The like results for `CNC(=O)c1c(-c2ccc(F)cc2)oc2cc(N(C)S(C)(=O)=O)c(-c3cnnc(-c4cc5c(OC)cccc5[nH]4)c3)cc12` [Compound 282] were, in that order, 3.3 nM and 1.8 nM.
The like results for `CNC(=O)c1c(-c2ccc(F)cc2)oc2cc(N(C)S(C)(=O)=O)c(-c3cnnc(-c4cc5cccnc5n4C)c3)cc12` [Compound 284] were, in that order, 6 nM and 2.7 nM.
Taken in the same sequence, the figures for `CNC(=O)c1c(-c2ccc(F)cc2)oc2cc(N(C)S(C)(=O)=O)c(-c3ccnc(-c4cc5c(C#N)cccc5[nH]4)c3)cc12` [Compound 233] were 0.1 nM and 0.4 nM.
In the case of `CNC(=O)c1c(-c2ccc(F)cc2)oc2cc(N(C)S(C)(=O)=O)c(-c3cncc(-c4cc5ccncc5s4)c3)cc12` [Compound 179], the IC50 in assay [1] turned out to be 8.2 nM; in assay [2], 5.1 nM.
Taken in the same sequence, the figures for `CNC(=O)c1c(-c2ccc(F)cc2)oc2cc(N(C)S(C)(=O)=O)c(-c3cc(-c4cc5ccccc5[nH]4)nc(OC)n3)cc12` [Compound 150, 5-(6-(1H-indol-2-yl)-2-methoxypyrimidin-4-yl)-2-(4-fluorophenyl)-N-methyl-6-(N-methylmethylsulfonamido)benzofuran-3-carboxamide] were 3.2 nM and 5.1 nM.
The like results for `CNC(=O)c1c(-c2ccc(F)cc2)oc2cc(N(C)S(C)(=O)=O)c(-c3cnnc(-c4[nH]c5ccccc5c4C)c3)cc12` [Compound 288] were, in that order, 75 nM and 25 nM.
Taken in the same sequence, the figures for `CNC(=O)c1c(-c2ccc(F)cc2)oc2cc(N(C)S(C)(=O)=O)c(-c3cnnc(-n4cc5c(F)cccc5n4)c3)cc12` [Compound 265] were 4.5 nM and 4.1 nM.
In the case of `CNC(=O)c1c(-c2ccc(F)cc2)oc2cc(N(C)S(C)(=O)=O)c(-c3cc(-c4cc5ccccc5[nH]4)c(OC)cn3)cc12` [Compound 202], the IC50 in assay [1] was 8.4 nM; in assay [2], 7.6 nM.
